Drawing on PubChem BioAssay (NCI), this text covers TGI for seven compounds.

Among the test systems are HCC-2998 colon; SW-620 colon; TK-10 renal; DMS 273 small cell lung; M19-MEL melanoma; P388 leukemia; P388/ADR leukemia; SN12K1 renal; DMS 114 small cell lung; LXFL 529 NSCLC; RXF-631 renal.
What all share (assay): NCI tumour cell line growth inhibition, 48 h

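A five-concentration, 48-hour dose response in 96-well plates underlies each endpoint, interpolated linearly between surrounding concentrations. TGI is the concentration that stops growth completely.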

With `C=CCn1c(=O)ccn(COCCO)c1=O`, the TGI in the assay with HCC-2998 colon, in the assay with SW-620 colon and in the assay with TK-10 renal was more than 100 µM throughout.
In the assay with HCC-2998 colon, `O=C(N=Nc1cc(Cl)ccc1Cl)NNc1cc(Cl)ccc1Cl` displayed a TGI of 94.1 µM.
For `O=S(=O)(O)c1cc2ccc1/C=C\c1ccc(cc1S(=O)(=O)O)N=Nc1ccc(c(S(=O)(=O)O)c1)/C=C\c1ccc(cc1S(=O)(=O)O)N=N2`, the TGI with DMS 273 small cell lung, with HCC-2998 colon, in the assay with M19-MEL melanoma, with P388 leukemia, in the assay on P388/ADR leukemia and in the assay on SN12K1 renal was more than 100 µM each time. In addition, the TGI in the assay on SW-620 colon is more than 100 µM.
Consider `O=c1ccc2cc3ccc4cccc5ccc(c2o1)c3c45`, for which the TGI in the assay on DMS 114 small cell lung, with LXFL 529 NSCLC, with M19-MEL melanoma, in the assay with RXF-631 renal, in the assay with SW-620 colon and in the assay on TK-10 renal was more than 100 µM throughout.
As to `COc1ccc2nc3cc(Cl)ccc3c(NCCCNCCCNc3c4ccc(Cl)cc4nc4ccc(OC)cc34)c2c1`, the TGI was 0.147 µM in the assay with HCC-2998 colon and 0.588 µM with TK-10 renal.
In the case of `COc1nc(C#CCC(C)O)nc(OC)n1` (stereo not drawn), the TGI worked out at 47.7 µM in the assay with SW-620 colon and 57.7 µM in the assay on TK-10 renal.
Turning to `CCOC(=O)/C=C(\C)c1ccc(C)cc1C`, the TGI with DMS 114 small cell lung is more than 100 µM; in the assay with DMS 273 small cell lung it was more than 100 µM; with HCC-2998 colon it was more than 100 µM; in the assay on LXFL 529 NSCLC it was 28.6 µM; in the assay on RXF-631 renal it was more than 100 µM; in the assay with SW-620 colon, 37.8 µM. The compound further registered a TGI in the assay with TK-10 renal of more than 100 µM.
